US20260216362A1, “ANTI-BDCA2 ANTIBODY-DRUG CONJUGATE AND USE THEREOF” (DUALITY BIOLOGICS (SHANGHAI) CO., LTD., priority 2022, published 2026)

Key:
[1] = system: cynomolgus monkey whole blood stimulated with CpG-A; assay: IFN-α after in vitro CpG-A stimulation of whole blood of dosed cynomolgus monkeys; type: in vivo; conditions: 10 mg/kg i.v.; CpGA-stimulated whole blood
Experimental: (§1) Cytokine expression was detected by whole blood stimulation in vitro.
(§2) The cells were cultured at 37° C. for 18 h, and the supernatant was collected. The TNF-α and IFN-α concentration levels in the supernatant were detected using an ELISA kit.
(§3) IFN-α concentration assay was performed using a Mabtech Human IFN-α (pan specific) ELISA kit (Cat. No. 3425-1H-20). 50 μL of serially diluted cytokine standard was added to each standard well, 50 μL of test sample was added to each sample well, and 50 μL of PBS was added to each blank control well. The cells were incubated at 37° C. for 2 h. The plate was washed 3 times, the liquid in each well was removed, and 300 µL of 1× PBST buffer working solution was added to each well; and after 1 minute of residence, the liquid in each well was discarded. 100 μL of detection antibody working solution was added to each well, and the cells were incubated at 37° C. for 1 h. […] The reading at wavelength 450 nm was detected using a Molecular device spectra max plus384 instrument within 10 min after the reaction was stopped.
(§4) Evaluation criteria in FIGS. 12-13: the average expression level changes of IFNα/TNFα were evaluated after in vitro stimulation of the whole blood with CpGA at 200 μg/mL on days 0-33 after administration. […]

[2] = system: pDCs in the peripheral blood of cynomolgus monkeys; assay: pDC percentage and BDCA2 expression level on pDCs in peripheral blood of dosed cynomolgus monkeys by FACS; conditions: 10 mg/kg intravenous
Experimental: Nine female cynomolgus monkeys were divided into 3 groups, 3 cynomolgus monkeys per group.
The pDC percentage in the peripheral blood and the BDCA2 expression level on the surface of pDCs were detected by FACS.
Venous blood of the cynomolgus monkeys was collected by using a heparin anticoagulation tube, 6 mL of red blood cell lysis buffer was added to 300 μL of the blood, and the resulting mixture was placed at room temperature for 10 min. The cells were collected by centrifugation at 400 g for 5 min at room temperature. The cells were washed with PBS and resuspended in 100 μL of cell staining buffer (PBS+1% FBS). 5 μL of Fc Block was added to the cell suspension and left to stand at 4° C. for 10 min. […] The cells were washed twice with PBS, resuspended in 200 μL of the cell staining buffer, and analyzed by using a flow cytometer.

recombinant Human BDCA2 = target: T1, recombinant Human BDCA2 (Homo sapiens, UniProt Q8WTT0); assay: Affinity assay of humanized antibodies by BIAcore (SPR); conditions: 1:1 binding model
T1 construct: extracellular domain (Asn45-Ile213) of human BDCA2 (hBDCA2); human IgG1 Fc (fused via a linker) (N); made in house; host or cells: 293E
T1 sequence (Q8WTT0 45-213): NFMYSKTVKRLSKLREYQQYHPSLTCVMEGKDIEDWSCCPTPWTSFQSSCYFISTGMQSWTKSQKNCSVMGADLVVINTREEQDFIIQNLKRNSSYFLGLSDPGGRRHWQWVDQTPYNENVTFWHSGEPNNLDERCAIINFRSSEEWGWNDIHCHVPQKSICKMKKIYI
Experimental: The humanized antibodies of the present disclosure were assayed for affinity by the BIAcore experiment. The surface of a CM5 chip channel was activated with 50 mM NHS and 200 mM EDC (NHS and EDC from an amino coupling kit) mixed in a ratio of 1:1, and the anti-human IgG (Fc) antibody (diluted with a sodium acetate solution at pH 5.0, the concentration was 25 μg/mL) was injected for 420 s. Then 1 M ethanolamine was injected at a flow rate of 10 μL/min for 420 s to block excess active carboxyl groups on the chip. The humanized antibody was diluted to 1 μg/mL using a running buffer and injected into a detection channel flow cell at a flow rate of 10 μL/min. The sample injection was performed for 60 s for capture. The recombinant Human BDCA2 was diluted to 50 nM or 100 nM with 1× HBS-EP+ (pH 7.4), and diluted in a gradient of 1:2 to 0.39 nM. The test samples hBDCA2 at these concentration gradients were separately injected into the detection channel at a flow rate of 30 μL/min, wherein 2 samples at the concentration of 0 were used for removing background signals. The times for the antibody-antigen binding and dissociation were 180 s and 400 s, respectively. […] After subtraction of the signals from the reference channel (flow cell 1) and 0 concentration, a 1:1 binding model was selected for curve fitting, and kinetic parameters calculated.

[3] = system: cynomolgus monkey whole blood stimulated with CpG-A; assay: TNF-α after in vitro CpG-A stimulation of whole blood of dosed cynomolgus monkeys; type: in vivo; conditions: 10 mg/kg i.v.; CpGA-stimulated whole blood
Experimental: as §1, §2
as §3, with “TNF-α” for “IFN-α”, “R&D Primate TNF-α DuoSet” for “Mabtech Human IFN-α (pan specific)”, “DY1070).” for “3425-1H-20).”, “times:” for “times,”, “μL” for “µL”
as §4

Substance: BIIB059: reference antibody specifically binding to BDCA2, sequence derived from U.S. Pat. No. 9,902,775B2; SEQ ID NO: 25 and 26 [reference compound]
- IFN-α expression level compared to the blank control group [1]: reduced
- BDCA2 level on the surface of pDCs in the blood compared to the blank control [2]: reduced
- pDC percentage in the blood compared to the blank control [2]: no significant change
- ka (recombinant Human BDCA2): 167000 M⁻¹ s⁻¹
- kd (recombinant Human BDCA2): 0.000179 s⁻¹
- TNFα expression level compared to the blank control group [3]: no significant change
